Laboratory results reported in article PMC6631223, “Chain-Branched Polyhydroxylated Octahydro-1H-Indoles as Potential Leads against Lysosomal Storage Diseases” (Pharmaceuticals, 2019).
Marks after values point to notes of the source that are not given here.

Assays:
Format in all cases: biochemical
[1] = target: T1, α-Glucosidase (yeast) (Saccharomyces cerevisiae, UniProt P53341); test: Glycosidase inhibition: α-glucosidase (yeast); details: α-glucosidase, yeast; 1000 μM
T1 construct: purchased Sigma-Aldrich Co
Source text: (§1) The enzymes α-glucosidase (from yeast, rice), β-glucosidase (from almonds, bovine liver), α-galactosidase (from coffee beans), β-galactosidase (from bovine liver), α-mannosidase (from jack beans), β-mannosidase (from snails), α-L-fucosidase (from bovine kidney), α-L-rhamnosidase (from Penicillium decumbens), β-glucuronidases (from Escherichia coli), α,α-trehalase (from porcine kidney), amyloglucosidase (from Aspergillus niger), p-nitrophenyl glycosides, and various disaccharides were purchased from Sigma-Aldrich Co. Brush border membranes were prepared from the rat small intestine according to the method of Kessler et al., and were assayed at pH 6.8 for rat intestinal maltase using maltose. For rat intestinal glucosidases and porcine kidney trehalase activities, the reaction mixture (0.2 mL) contained 25 mM substrate and the appropriate amount of enzyme, and the incubations were performed for 10 min at 37 °C. The reaction was stopped by heating at 100 °C for 3 min. After centrifugation (600 g; 10 min), 0.035 mL of the resulting reaction mixture were added to 2.1 mL of the Glucose CII-test Wako (Wako Pure Chemical Ind., Osaka, Japan). The absorbance at 505 nm was measured to determine the amount of the released D-glucose. Other glycosidase activities were determined using an appropriate p-nitrophenyl glycoside as substrate at the optimum pH of each enzyme. The reaction mixture (0.2 mL) contained 2 mM of the substrate and the appropriate amount of enzyme. The reaction was stopped by adding 0.4 mL of 400 mM Na2CO3. The released p-nitrophenol was measured spectrometrically at 400 nm.

[2] = system: Rat intestinal maltase; test: Glycosidase inhibition: rat intestinal maltase; details: maltose, pH 6.8, 1000 μM
Source text: as §1

[3] = system: β-Glucosidase (almond); test: Glycosidase inhibition: β-glucosidase (almond); details: 1000 μM
Source text: as §1

[4] = target: T2, Lactase (β-Galactosidase) (Rattus norvegicus, UniProt Q02401); test: Glycosidase inhibition: lactase; details: read-out: inhibition % at 1000 μM
T2 construct: Brush border membranes were prepared from the rat small intestine; from tissue; host or cells: rat small intestine brush border membranes (inferred)
T2 sequence (Q02401 868-1928): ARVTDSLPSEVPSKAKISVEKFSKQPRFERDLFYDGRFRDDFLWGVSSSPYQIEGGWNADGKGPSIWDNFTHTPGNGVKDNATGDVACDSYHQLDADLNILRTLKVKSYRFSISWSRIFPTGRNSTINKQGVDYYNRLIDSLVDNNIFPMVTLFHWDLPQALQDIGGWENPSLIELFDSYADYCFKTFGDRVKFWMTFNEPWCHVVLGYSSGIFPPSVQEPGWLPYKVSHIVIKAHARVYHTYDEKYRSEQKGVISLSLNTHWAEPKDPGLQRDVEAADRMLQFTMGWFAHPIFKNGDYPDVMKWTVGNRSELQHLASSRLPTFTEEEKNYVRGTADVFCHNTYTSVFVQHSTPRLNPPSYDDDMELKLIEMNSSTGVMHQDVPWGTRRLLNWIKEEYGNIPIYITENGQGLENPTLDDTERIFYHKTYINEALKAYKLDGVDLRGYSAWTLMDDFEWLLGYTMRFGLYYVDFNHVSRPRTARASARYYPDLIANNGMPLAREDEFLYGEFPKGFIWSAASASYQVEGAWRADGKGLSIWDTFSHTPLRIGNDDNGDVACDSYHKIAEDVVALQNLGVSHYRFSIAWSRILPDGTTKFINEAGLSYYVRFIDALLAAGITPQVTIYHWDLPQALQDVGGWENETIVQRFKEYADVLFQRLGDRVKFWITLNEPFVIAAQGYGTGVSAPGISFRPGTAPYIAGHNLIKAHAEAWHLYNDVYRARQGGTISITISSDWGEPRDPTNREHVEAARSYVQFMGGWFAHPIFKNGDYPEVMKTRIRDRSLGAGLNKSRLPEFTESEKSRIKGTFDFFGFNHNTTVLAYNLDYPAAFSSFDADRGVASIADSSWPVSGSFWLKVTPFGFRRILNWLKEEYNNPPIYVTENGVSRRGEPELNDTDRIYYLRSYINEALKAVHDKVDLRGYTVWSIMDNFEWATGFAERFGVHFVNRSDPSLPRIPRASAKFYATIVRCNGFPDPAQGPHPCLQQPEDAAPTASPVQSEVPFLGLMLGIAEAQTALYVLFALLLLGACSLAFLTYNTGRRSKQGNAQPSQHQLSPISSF
Source text: as §1

[5] = target: T3, α-Mannosidase (jack bean) (Canavalia ensiformis, UniProt C0HJB3); test: Glycosidase inhibition: α-mannosidase (jack bean)
T3 construct: purchased Sigma-Aldrich Co
T3 sequence (C0HJB3 1-981): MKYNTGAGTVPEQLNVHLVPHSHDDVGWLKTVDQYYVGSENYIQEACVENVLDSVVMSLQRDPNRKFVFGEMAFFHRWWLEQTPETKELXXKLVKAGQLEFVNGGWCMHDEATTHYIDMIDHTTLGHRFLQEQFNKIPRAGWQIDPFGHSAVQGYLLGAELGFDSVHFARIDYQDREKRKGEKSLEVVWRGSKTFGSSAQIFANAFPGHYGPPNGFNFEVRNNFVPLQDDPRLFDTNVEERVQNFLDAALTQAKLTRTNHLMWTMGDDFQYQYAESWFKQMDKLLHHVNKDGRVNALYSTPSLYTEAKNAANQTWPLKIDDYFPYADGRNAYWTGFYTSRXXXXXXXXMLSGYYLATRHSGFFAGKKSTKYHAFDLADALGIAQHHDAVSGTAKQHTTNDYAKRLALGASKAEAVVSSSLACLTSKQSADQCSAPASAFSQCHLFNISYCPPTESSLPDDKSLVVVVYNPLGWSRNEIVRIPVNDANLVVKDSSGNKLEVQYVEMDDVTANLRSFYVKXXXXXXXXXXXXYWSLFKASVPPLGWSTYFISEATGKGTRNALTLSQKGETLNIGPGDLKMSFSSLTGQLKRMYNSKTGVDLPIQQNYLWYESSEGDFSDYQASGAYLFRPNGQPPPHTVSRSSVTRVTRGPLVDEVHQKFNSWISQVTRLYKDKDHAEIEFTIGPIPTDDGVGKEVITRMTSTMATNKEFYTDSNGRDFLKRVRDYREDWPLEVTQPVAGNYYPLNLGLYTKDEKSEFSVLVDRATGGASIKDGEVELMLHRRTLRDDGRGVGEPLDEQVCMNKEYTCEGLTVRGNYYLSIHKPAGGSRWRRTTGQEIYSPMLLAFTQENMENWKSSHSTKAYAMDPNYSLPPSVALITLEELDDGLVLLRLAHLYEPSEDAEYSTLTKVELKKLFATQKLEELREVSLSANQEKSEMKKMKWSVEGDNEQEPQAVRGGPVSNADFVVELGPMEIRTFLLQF
Source text: as §1, with “After centrifugation (600 g; 10 min), 0.035 mL of the resulting reaction mixture were added to 2.1 mL of the Glucose CII-test Wako (Wako Pure Chemical Ind., Osaka, Japan).” left out, “The reaction mixture (0.2 mL) contained 2 mM of the substrate and the appropriate amount of enzyme. The reaction was stopped by adding 0.4 mL of 400 mM Na2CO3.” left out

[6] = system: β-Mannosidase (snail); test: Glycosidase inhibition: β-mannosidase (snail); details: 1000 μM
Source text: as §1

[7] = target: T4, Amyloglucosidase (Aspergillus niger, UniProt P69328); test: Glycosidase inhibition: amyloglucosidase (Aspergillus niger); details: amyloglucosidase, Aspergillus niger; 1000 μM
T4 construct: purchased Sigma-Aldrich Co
Source text: as §1

T4 sequence (P69328 25-640): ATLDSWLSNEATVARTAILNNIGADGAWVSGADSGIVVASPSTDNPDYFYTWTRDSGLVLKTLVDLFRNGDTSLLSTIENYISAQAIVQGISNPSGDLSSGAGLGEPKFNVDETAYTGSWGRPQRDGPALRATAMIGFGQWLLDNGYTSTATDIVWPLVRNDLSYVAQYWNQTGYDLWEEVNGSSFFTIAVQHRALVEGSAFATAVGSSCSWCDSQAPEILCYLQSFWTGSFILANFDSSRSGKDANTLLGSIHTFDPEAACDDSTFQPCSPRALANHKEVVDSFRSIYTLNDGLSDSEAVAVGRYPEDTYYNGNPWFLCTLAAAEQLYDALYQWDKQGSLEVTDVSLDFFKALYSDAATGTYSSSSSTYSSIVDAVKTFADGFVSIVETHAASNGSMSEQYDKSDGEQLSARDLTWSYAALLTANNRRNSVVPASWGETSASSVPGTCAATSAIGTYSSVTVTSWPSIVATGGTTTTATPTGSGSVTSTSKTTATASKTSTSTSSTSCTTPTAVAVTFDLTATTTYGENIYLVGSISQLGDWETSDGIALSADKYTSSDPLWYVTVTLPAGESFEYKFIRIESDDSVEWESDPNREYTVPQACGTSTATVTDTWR
T1 sequence (P53341 whole entry): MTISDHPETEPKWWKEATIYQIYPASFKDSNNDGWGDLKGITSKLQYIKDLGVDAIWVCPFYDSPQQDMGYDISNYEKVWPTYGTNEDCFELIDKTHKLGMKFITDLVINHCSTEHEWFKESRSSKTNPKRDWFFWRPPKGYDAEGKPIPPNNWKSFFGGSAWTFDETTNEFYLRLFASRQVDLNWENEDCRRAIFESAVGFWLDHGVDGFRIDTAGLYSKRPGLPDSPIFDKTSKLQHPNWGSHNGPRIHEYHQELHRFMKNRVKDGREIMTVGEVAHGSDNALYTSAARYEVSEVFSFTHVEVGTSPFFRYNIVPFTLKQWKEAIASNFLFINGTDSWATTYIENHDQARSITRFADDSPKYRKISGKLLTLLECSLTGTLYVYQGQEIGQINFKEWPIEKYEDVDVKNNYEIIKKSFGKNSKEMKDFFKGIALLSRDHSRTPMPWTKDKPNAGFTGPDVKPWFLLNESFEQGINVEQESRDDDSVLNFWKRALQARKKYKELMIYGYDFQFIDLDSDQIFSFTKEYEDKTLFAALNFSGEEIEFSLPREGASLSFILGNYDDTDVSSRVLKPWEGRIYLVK

Row | Compound | inhibition at 1000 µM [1] | inhibition % at 1000 μM [2] | inhibition % at 1000 μM [3] | inhibition at 1000 µM [4] | inhibition at 1000 µM [5] | inhibition % at 1000 μM [6] | inhibition at 1000 µM [7]
1 | CC[C@@H]1CN[C@H]2C[C@@H](O)[C@H](O)[C@@H](O)[C@H]12 [Compound 10, (3S,3aR,4S,5S,6R,7aS)-3-Ethyloctahydro-1H-indole-4,5,6-triol] | 16% | 4.1% ^a | 12% ^a | 0.6% | 0% | 0% ^a | 0%
2 | CC[C@H]1CN[C@H]2C[C@@H](O)[C@H](O)[C@@H](O)[C@H]12 [Compound 13, (3R,3aR,4S,5S,6R,7aS)-3-ethyloctahydro-1H-indole-4,5,6-triol] | 19.5% | 0% ^a | 5% ^a | 7.4% | 0% | 2.3% ^a | 0%
